Where two headings read alike, the source gives them in different places.
Legend:
mTOR = mTOR inhibition (RPS6 phosphorylation status), In-Cell Western; assay type: cell-based, human
Description: In-Cell Western assays were performed, following a standard immuno-staining protocol. Briefly, WI-38 cells were treated with small molecules for 24 hrs, and then processed and incubated with primary antibody cocktail (Cell Signaling, mouse anti-RPS, 1:25; rabbit-anti-pRPS6-(Ser-235/236), 1:100) overnight at 4° C. Next day, samples were processed and incubated with fluorophore-conjugated secondary antibodies (Cell Signaling, DyLight 680-goat anti-mouse, 1:500; DyLight 800-goat anti-rabbit, 1:1,000). Images were collected on an Odyssey Imager (LI-COR) and analyzed with the Image Studio Lite software (version 5.0.21).
Mammalian target of rapamycin (mTOR) is a crucial regulator of cell growth and metabolism and has been implicated in aging and many diseases, including cancer, diabetes and neurological diseases (Dazert and Hall, 2011; Zoncu et al., 2011). […] In addition, the anti-diabetes drug metformin (Kalender et al., 2010), as well as other AMPK activators such as 2-deoxy-D-glucose (Inoki et al., 2003) and AICAR (Shaw et al., 2004), could inhibit mTORC1. Applicants examined the effects of our molecules (at three doses, 5 μM, 10 μM and 20 μM) on the phosphorylation status of ribosomal protein S6 (RPS6), a readout of mTOR activity, to ask whether they could inhibit mTOR.
In-Cell Western assays were performed, following the same procedures to analyze DNA-damage markers. WI-38 cells were incubated with small molecules for 24 hrs, and then processed and incubated with primary antibody cocktail (mouse anti-RPS, 1:25; rabbit-anti-pRPS6, 1:100) overnight at 4° C. Next day, samples were processed and incubated with fluorophore-conjugated secondary antibodies (goat anti-mouse, 1:500; goat anti-rabbit, 1:1,000) in antibody dilution buffer. Images were collected on an Odyssey Imager (LI-COR) and analyzed with the Image Studio Lite software.

WI-38 cells [1] = experiment: Propidium iodide (PI) cell-death imaging upon H2O2 stress; assay type: cell-based, human; conditions: for Assay 7: H2O2-resistant, at 10 uM, validated by propidium iodide (PI) cell-death imaging: w/H2O2, 3 hrs/4 hrs/5 hrs, YES/NO; for cytotoxicity at 10 µM: Homo sapiens, WI-38
WI-38 cells [2] = conditions: for PI cell-death imaging without H2O2 (indicating potential toxicity): Assay 8(k), without H2O2, at 10 uM; for Percentage of propidium iodide-positive (dead) cells under normal conditions (qualitative) / PI-positive dead cells under normal conditions: WI-38, no H2O2; for PI-positive dead cells under normal conditions: control 0.4±0.2%; for Percentage of propidium iodide-positive dead cells (no H2O2 stress treatment), at 10 uM: negative control 0.41% ± 0.23%
Description: WI-38 cells were seeded on 384-well plates for 24 hrs and then incubated with small molecules for 24 hrs. […] Images were collected on an INCell Analyzer 2000 (GE) and analyzed with the Developer software.

WI-38 cells [3] = experiment: Long-term effects on cell viability (5 days, ATP; morphology, PI imaging); assay type: cell-based; conditions: 10 μM; for Luminescence signal for ATP measurement, day-1 Average / Luminescence signal for ATP measurement, day-2 Average / Luminescence signal for ATP measurement, day-3 Average / Luminescence signal for ATP measurement, day-4 Average / Luminescence signal for ATP measurement, day-5 Average / viability at 10 µM: Batch 1; for Luminescence signal for ATP measurement, day-1 Average / Luminescence signal for ATP measurement, day-2 Average / Luminescence signal for ATP measurement, day-3 Average / Luminescence signal for ATP measurement, day-4 Average / Luminescence signal for ATP measurement, day-5 Average: n = 6, day-0 luminescence = 320956 ± 24708; for viability at 10 µM: Homo sapiens, WI-38, 120 h, DMSO ctrl = 100.0%, read-out: ATP luminescence by day-5 normalized; for Luminescence signal for ATP measurement, day-5 Average / viability at 10 µM: day-5; for O = Potential toxicity / Q = Potential toxicity: human, 5 days;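 as to Luminescence signal for ATP measurement, day-2 Average: compounds at 10 µM with ATP read daily over 5 days of treatment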;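 as to Luminescence signal for ATP measurement, day-3 Average: compounds at 10 µM with ATP read daily over 5 days of treatment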;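 as to Luminescence signal for ATP measurement, day-4 Average: compounds at 10 µM with ATP read daily over 5 days of treatment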;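 as to Luminescence signal for ATP measurement, day-5 Average: compounds at 10 µM with ATP read daily over 5 days of treatment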
Description: In addition, cell death was scored by PI-imaging on day 2 and day 5 of treatment.
Applicants introduced molecules (at 10 uM final concentration) to WI-38 fibroblasts and then assayed cell viability (through ATP measurement) everyday, during a course of 5 days of continuous treatment. […] Applicants also examined the morphology and scored cell death (propidium iodide staining) for cells treated with the above molecules. Of these 14 molecules, some appeared to cause cell toxicity. […] Despite the observed long-term toxicity, these molecules are still interesting as they may act as anti-tumor agents in vivo, should they have more pronounced cytotoxicity on highly proliferative tumor cells. When cells were incubated with these molecules for ˜24 hrs and then subject to hydrogen peroxide for 3 hrs, these molecules are all protective. […] Some of these small molecules may be toxic by themselves under certain conditions, but by inducing protective mechanisms, they may trigger “hormesis” and therefore protect cells from oxidative stress.

WI-38 cells [4] = experiment: MMS resistance assay; assay type: cell-based, human; conditions: for fold induction at 10 µM: Homo sapiens, 12 h, normalized ATP measurement; for Assay 3: MMS-resistant / Assay 5: Triple resistant: YES/NO; for Assay 3: MMS-resistant: * indicates partial; for Assay 5: Triple resistant: H2O2, cadmium and MMS
Procedure, shortened: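 Resistance to CdCl2 or MMS stress (12 h exposure) was scored in WI-38 fibroblasts pretreated with compound at 0.25–20 μM final, five doses, technical triplicates. MMS plates had compound added 24 h before MMS, after a shift to serum-free DMEM+2% BSA. Significance came from a global variance t-test over two independent runs.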

WI-38 cells [5] = conditions: for No H2O2 stress treatment, at 10 uM (fold change): normalized ATP measurement; for Assay 1: H2O2-resistant: YES/NO, if NO, possibly due to repeated freezing/thawing of stocks
[6] = H2O2 3 hrs, 10 uM, n = 6, negative control 5.44% ± 0.79%, read-out: Percentage of propidium iodide-positive dead cells (under H2O2 stress treatment), 3 hrs
[7] = H2O2 4 hrs, 10 uM, n = 6, negative control 16.81% ± 1.42%, read-out: Percentage of propidium iodide-positive dead cells (under H2O2 stress treatment), 4 hrs
[8] = H2O2 5 hrs, 10 uM, n = 6, negative control 22.50% ± 1.53%, read-out: Percentage of propidium iodide-positive dead cells (under H2O2 stress treatment), 5 hrs
[9] = pre-treatment at 10 uM, 3.5 hours of H2O2, DMSO control 27.4% ± 6.5%, */**/*** = reduced by one/two/three standard deviations, read-out: Percentage of propidium iodide-positive dead cells (under H2O2 stress treatment), at 10 uM
[10] = Exp. 1, WI-38 cells, read-out: Exp. 1, under MMS stress treatment, at 10 uM (fold change)
[11] = Exp. 2, WI-38 cells, read-out: Exp. 2, under MMS stress treatment, at 10 uM (fold change)
[12] = score in summary of 38 core set hits
[13] = WI-38 cells, 10 μM, (*) = compromised ability to protect cells from H2O2, could be due to stability issue
[14] = asterisks indicate the loss of the ability to protect cells from H2O2 over time
[15] = derived from dose response curves, 0.6-20 uM, H2O2-resistance of WI-38 cells
[16] = read-out: Est. ED50, dose response 0.6-20 μM, H2O2-resistance

| SMILES | G = mTOR down-regulation (mTOR; 2-point score) | G = mTOR down-regulation (mTOR; summary score) | Assay 7: H2O2-resistant, at 10 uM, validated by propidium iodide (PI) cell-death imaging (WI-38 cells [1]; 10 uM) | cytotoxicity at 10 µM (WI-38 cells [1]; [6]) | cytotoxicity at 10 µM (WI-38 cells [1]; [7]) | cytotoxicity at 10 µM (WI-38 cells [1]; [9]) | Percentage of propidium iodide-positive dead cells (no H2O2 stress treatment), at 10 uM (WI-38 cells [2]) | Luminescence signal for ATP measurement, day-1 Average (WI-38 cells [3]) | Luminescence signal for ATP measurement, day-2 Average (WI-38 cells [3]) | Luminescence signal for ATP measurement, day-3 Average (WI-38 cells [3]) | Luminescence signal for ATP measurement, day-4 Average (WI-38 cells [3]) | Luminescence signal for ATP measurement, day-5 Average (WI-38 cells [3]) | viability at 10 µM (WI-38 cells [3]) | O = Potential toxicity (WI-38 cells [3]) | Q = Potential toxicity (WI-38 cells [3]) | fold induction at 10 µM (WI-38 cells [4]; [10]) | fold induction at 10 µM (WI-38 cells [4]; [11]) | B = MMS resistant (WI-38 cells [4]; [12]) | B = MMS resistant (WI-38 cells [4]; summary score) | D = Triple resistant (WI-38 cells [4]; summary score) | other results |
| --- | --- | --- | --- | --- | --- | --- | --- | --- | --- | --- | --- | --- | --- | --- | --- | --- | --- | --- | --- | --- | --- |
| CCc1ccccc1NC(=O)c1ccc([N+](=O)[O-])o1 [Gr-1C] | 0 | 0 | YES | 2.49% | 3.1% | 7.8% | 3.51% ± 1.28%, | 421913 | 545683 | 662368 | 875881 | 819655 | 79.8% | 1 | 0 | 0.73 | 0.39 | 0 | 0 | 0 | cytotoxicity at 10 µM (WI-38 cells [1]; [8]): 4.05%; PI cell-death imaging without H2O2 (indicating potential toxicity) (WI-38 cells [2]): YES; Percentage of propidium iodide-positive (dead) cells under normal conditions (qualitative) (WI-38 cells [2]): increased the percentage; PI-positive dead cells under normal conditions (WI-38 cells [2]): 3.5±1.3%; H2O2-resistant (WI-38 cells [5]; [13]): YES; No H2O2 stress treatment, at 10 uM (fold change) (WI-38 cells [5]; WI-38 cells): 0.81 fold change; Assay 1: H2O2-resistant (WI-38 cells [5]): YES; H2O2-resistant (WI-38 cells [5]; [14]): YES; EC50 (WI-38 cells [5]; [15]): 8 µM; EC50 (WI-38 cells [5]; [16]): 2.66 µM |
| O=C(Nc1cccc(Cl)c1)c1ccc([N+](=O)[O-])o1 [Gr-1D] | 0 | 0 | YES | 6.27% | 5.83% | 36.7% | 4.16% ± 1.39%, | 396843 | 497248 | 542643 | 797305 | 865168 | 84.3% | 1 | 0 | 1.16 | 2.31 | 0 | 1 | 2 | PI cell-death imaging without H2O2 (indicating potential toxicity) (WI-38 cells [2]): YES; Percentage of propidium iodide-positive (dead) cells under normal conditions (qualitative) (WI-38 cells [2]): increased the percentage; PI-positive dead cells under normal conditions (WI-38 cells [2]): 4.2±1.4%; Assay 3: MMS-resistant (WI-38 cells [4]): YES; Assay 5: Triple resistant (WI-38 cells [4]): YES; H2O2-resistant (WI-38 cells [5]; [13]): YES; No H2O2 stress treatment, at 10 uM (fold change) (WI-38 cells [5]; WI-38 cells): 0.91 fold change; Assay 1: H2O2-resistant (WI-38 cells [5]): YES; H2O2-resistant (WI-38 cells [5]; [14]): YES; EC50 (WI-38 cells [5]; [15]): 4.6 µM; EC50 (WI-38 cells [5]; [16]): 2.68 µM |
| O=C(Nc1cccc(C(F)(F)F)c1)c1ccc([N+](=O)[O-])o1 [Gr-1E] | 0 | 0 | YES | 1.68% | 2.95% | 18.8% | 0.71% ± 0.28%, | 474558 | 698358 | 788420 | 1038011 | 1066135 | 104% | 0 | 0 | 0.72 | 1.21 | 0 | 0 | 0 | cytotoxicity at 10 µM (WI-38 cells [1]; [8]): 3.44%; Assay 3: MMS-resistant (WI-38 cells [4]): NO *; Assay 5: Triple resistant (WI-38 cells [4]): YES; H2O2-resistant (WI-38 cells [5]; [13]): YES; No H2O2 stress treatment, at 10 uM (fold change) (WI-38 cells [5]; WI-38 cells): 0.96 fold change; Assay 1: H2O2-resistant (WI-38 cells [5]): YES; H2O2-resistant (WI-38 cells [5]; [14]): YES; EC50 (WI-38 cells [5]; [15]): 3.7 µM; EC50 (WI-38 cells [5]; [16]): 2.76 µM |
| Cc1ccc(NC(=O)c2ccc([N+](=O)[O-])o2)cc1C [Gr-1F] | 0 | 0 | YES | 3.55% | 3.07% | 11.2% | 3.27% ± 0.82%, | 383221 | 440655 | 446240 | 534298 | 600633 | 58.5% | 1 | 1 | 0.74 | 2.07 | 0 | 1 | 2 | cytotoxicity at 10 µM (WI-38 cells [1]; [8]): 4.57%; PI cell-death imaging without H2O2 (indicating potential toxicity) (WI-38 cells [2]): YES; Percentage of propidium iodide-positive (dead) cells under normal conditions (qualitative) (WI-38 cells [2]): increased the percentage; PI-positive dead cells under normal conditions (WI-38 cells [2]): 3.3±0.8%; Assay 3: MMS-resistant (WI-38 cells [4]): YES; Assay 5: Triple resistant (WI-38 cells [4]): YES; H2O2-resistant (WI-38 cells [5]; [13]): YES; No H2O2 stress treatment, at 10 uM (fold change) (WI-38 cells [5]; WI-38 cells): 0.60 fold change; Assay 1: H2O2-resistant (WI-38 cells [5]): YES; H2O2-resistant (WI-38 cells [5]; [14]): YES; EC50 (WI-38 cells [5]; [15]): 14.8 µM; EC50 (WI-38 cells [5]; [16]): 2.88 µM |
